{
  "source": "patent US20190374647A1",
  "about": "“STABLE LIPOSOMES FOR DRUG DELIVERY” (YISSUM RESEARCH DEVELOPMENT COMPANY OF THE HEBREW …, priority 2012, published 2019)",
  "key": {"[1]": {"assay": "Doxorubicin solubility in ammonium salt solutions", "format": "physicochemical"}, "[2]": {"assay": "Blood levels of doxorubicin in mice after single I.V. dose", "format": "in vivo, Balb/c mice", "settings": "after 48 hours, FIG. 3", "experimental": "At defined time-points (see Table 8 below, for composition of each formulation see Tables 5 and 6), mice of each group were euthanized with CO2 and terminal blood was withdrawn from the retro-orbital sinus and collected in labeled K3EDTA tubes. The blood samples were then immediately subjected to plasma separation procedure (4000 rpm for 10 minutes at 4° C.). The plasma, red blood cells fraction and whole blood of each mouse has been collected in labeled CryoTubes and stored at −80° C. pending analysis. Doxorubicin was extracted from the samples as follows. […] From the upper phase, 100 μl of the plasma diluted in A-IPA were diluted in 900 μl mobile phase for analysis and the contents of extracted doxorubicin was determined using fluorescence HPLC (as described in Gabizon et al. (1993) Pharm. Research 10(5):703-708)."}, "[3]": {"system": "human OVCAR-3 ovarian adenocarcinoma cells", "assay": "OVCAR-3 ovarian adenocarcinoma xenograft, anti-tumor efficacy", "format": "in vivo, athymic nude mice", "experimental": "Female athymic nude mice were inoculated subcutaneously in the left flank with a suspension of 5×10^6 human OVCAR-3 ovarian adenocarcinoma cells (200 µL injection volume) and monitored for tumor growth. Animals were selected, randomized into four treatment groups (n=8 per group) with a balanced tumor size of ˜100 mm^3 according to the study design (Table 9) below.\n(§1) G1 animals served as vehicle control and received 5 ml/kg saline. 2, G5 and G6 animals were treated with 8 mg/kg doxorubicin HCl, LC3-PLDMS-2 (PLMDS-2 are liposomes containing 250 mM ammonium methanesulfonate (MS) and remote loaded with doxorubicin (group 5 in the experiment), LC4_PLDMS-5 are liposomes containing 500 mM ammonium methanesulfonate (MS) and remote loaded with doxorubicin (group 6 in the experiment) (respectively, given intravenously (5 mL/kg dose volume) once weekly for 2 consecutive weeks. Body weight, general clinical observations and tumor size were monitored throughout the experimental period. Experimental groups were terminated when median tumor volume reached 2500 mm^3. Endpoint parameters such as body weight change, % ILS, Median tumor volume, TGI, % T/C, RTV, LCK, Tumor growth delay, TVDT and TVDTD were calculated. Tumor volumes were measured twice weekly using a digital vernier caliper recording length (L=longest axis) and width (W=shortest axis), and volume was calculated in mm^3 as L×W^2/2. Groups reaching a median tumor volume of 2500 mm^3 were terminated and the date of termination was used as the date of death for the purpose of survival calculations. The following parameters were calculated: median survival time (MST), percentage increased life span (% ILS) and median tumor volume (TV). Other measured, including median TV change; median tumor growth inhibition (TGI); % T/C; relative tumor volume (RTV); log cell kill (LCK); tumor growth delay; tumor volume doubling time (TVDT); and tumor volume doubling time delay (TVDTC), were derived from the median tumor volume measurements. Tumor growth regression was also plotted.\n(§2) Mice bearing growing tumor were selected and randomized into 4 groups containing 8 animals in each based on a mean tumor size of ˜100 mm3. G1 animals served as vehicle control and received 5 ml/kg saline whereas G2, G5 and G6 animals received Doxorubicin HCl, LC3-PLDMS-2 or LC4-PLDMS-5, respectively, at a dose of 8 mg/kg. All the animals were dosed intravenously at the dose volume of 5 ml/kg weekly once for two weeks. Body weight, general clinical observations and tumor volume parameters were recorded during the experimental period. Groups reaching median tumor volume of 2500 mm^3 were terminated.\nFor preparation and administration of reference and test item, all the test items are ready to use formulations. The strength of test formulation is 2 mg/ml of doxorubicin HCl in sterile 5 ml vial. 2 ml of reference or test item formulation (i.e. Doxorubicin HCl, LC3-PLDMS-2 and LC4-PLDMS-5) was diluted to 0.5 ml normal saline to achieve 1.6 mg/ml. 100 μL of final test formulation was injected intravenously to 20 g of mouse to achieve the 8 mg/kg dose. Group G1 animals received normal saline at the dose volume of 5 ml/kg."}, "[4]": {"assay": "OVCAR-3 xenograft study, tolerability (body weight, clinical signs)", "format": "in vivo", "experimental": "as §1, §2\nThe body weight of each mouse was recorded at the time of randomization, on alternate days during dosing period and post-dosing period until the end of the study."}, "[5]": {"settings": "8 mg/kg i.v. once weekly for 2 weeks"}},
  "note": "Structures can show the parent of a compound that is named as a salt. Marks after values point to notes of the source that are not given here.",
  "data": [
    {"smiles": "COc1cccc2c1C(=O)c1c(O)c3c(c(O)c1C2=O)C[C@@](O)(C(=O)CO)C[C@@H]3O[C@H]1C[C@H](N)[C@H](O)[C@H](C)O1", "note": "[Doxorubicin HCl]", "values": [
      {"measurement": "higher solubility of the methanesulfonate form versus ammonium sulfate", "setting": "[1]", "value": "at least 35 fold"},
      {"measurement": "solubility of doxorubicin in 250 mM ammonium alkyl or aryl sulfonate relative to 250 mM ammonium sulfate", "setting": "[1]", "value": "approximately 30 fold"},
      {"measurement": "precipitation in the presence of alkyl or aryl sulfonate ions", "setting": "[1]; 70 mM", "value": "did not precipitate"},
      {"measurement": "concentration at which doxorubicin precipitates", "setting": "[1]; in the presence of sulfate ions (ammonium sulfate)", "value": "less than 2 mM"},
      {"measurement": "drug levels in blood in comparison to Doxil®", "setting": "[2]", "value": "below limit of detection"},
      {"measurement": "% Increased Life Span (% ILS)", "setting": "[3]; [5]", "value": 21.2, "unit": "%"},
      {"measurement": "Mean TVDT", "setting": "[3]; [5]", "value": 7, "unit": "days"},
      {"measurement": "Median Survival Time (MST)", "setting": "[3]; [5]", "value": 63},
      {"measurement": "median life span", "setting": "[3]; [5]", "value": 63, "unit": "days"},
      {"measurement": "Log Cell Kill Value", "setting": "[3]; 8 mg/kg i.v. once weekly for 2 weeks, derived from median tumor volume", "value": 0.40},
      {"measurement": "Median Tumor Volume", "setting": "[3]; Day 22", "value": 110.9, "unit": "mm^3"},
      {"measurement": "Median Tumor Volume", "setting": "[3]; Day 24", "value": 128.6, "unit": "mm^3"},
      {"measurement": "Median Tumor Volume", "setting": "[3]; Day 26", "value": 145.8, "unit": "mm^3"},
      {"measurement": "Median Tumor Volume", "setting": "[3]; Day 28", "value": 173.8, "unit": "mm^3"},
      {"measurement": "Median Tumor Volume", "setting": "[3]; Day 30", "value": 194.7, "unit": "mm^3"},
      {"measurement": "Median Tumor Volume", "setting": "[3]; Day 32", "value": 215.5, "unit": "mm^3"},
      {"measurement": "Median Tumor Volume", "setting": "[3]; Day 34", "value": 252.9, "unit": "mm^3"},
      {"measurement": "Median Tumor Volume", "setting": "[3]; Day 36", "value": 311.1, "unit": "mm^3"},
      {"measurement": "Median Tumor Volume", "setting": "[3]; Day 38", "value": 379.4, "unit": "mm^3"},
      {"measurement": "Median Tumor Volume", "setting": "[3]; Day 40", "value": 453.8, "unit": "mm^3"},
      {"measurement": "Median Tumor Volume", "setting": "[3]; Day 42", "value": 550.9, "unit": "mm^3"},
      {"measurement": "Median Tumor Volume", "setting": "[3]; Day 44", "value": 673.4, "unit": "mm^3"},
      {"measurement": "Median Tumor Volume", "setting": "[3]; Day 46", "value": 802.4, "unit": "mm^3"},
      {"measurement": "Median Tumor Volume", "setting": "[3]; Day 48", "value": 1006.1, "unit": "mm^3"},
      {"measurement": "Median Tumor Volume", "setting": "[3]; Day 50", "value": 1218.8, "unit": "mm^3"},
      {"measurement": "Median Tumor Volume", "setting": "[3]; Day 52", "value": 1430.3, "unit": "mm^3"},
      {"measurement": "Median Tumor Volume", "setting": "[3]; Day 56", "value": 1799.5, "unit": "mm^3"},
      {"measurement": "Median Tumor Volume", "setting": "[3]; Day 59", "value": 2192.6, "unit": "mm^3"},
      {"measurement": "Median Tumor Volume", "setting": "[3]; Day 63", "value": 2699.3, "unit": "mm^3"},
      {"measurement": "Mean Body Weight", "setting": "[4]; Day 22", "value": 22.4, "unit": "g"},
      {"measurement": "Mean Percentage Change in Body Weight", "setting": "[4]; Day 22", "value": 0.0, "unit": "%"},
      {"measurement": "Mean Body Weight", "setting": "[4]; Day 24", "value": 22.1, "unit": "g"},
      {"measurement": "Mean Percentage Change in Body Weight", "setting": "[4]; Day 24", "value": "−1.6", "unit": "%"},
      {"measurement": "Mean Body Weight", "setting": "[4]; Day 26", "value": 21.6, "unit": "g"},
      {"measurement": "Mean Percentage Change in Body Weight", "setting": "[4]; Day 26", "value": "−3.7", "unit": "%"},
      {"measurement": "Mean Body Weight", "setting": "[4]; Day 28", "value": 21.8, "unit": "g"},
      {"measurement": "Mean Percentage Change in Body Weight", "setting": "[4]; Day 28", "value": "−2.9", "unit": "%"},
      {"measurement": "Mean Body Weight", "setting": "[4]; Day 30", "value": 21.5, "unit": "g"},
      {"measurement": "Mean Percentage Change in Body Weight", "setting": "[4]; Day 30", "value": "−4.1", "unit": "%"},
      {"measurement": "Mean Body Weight", "setting": "[4]; Day 32", "value": 21.4, "unit": "g"},
      {"measurement": "Mean Percentage Change in Body Weight", "setting": "[4]; Day 32", "value": "−4.7", "unit": "%"},
      {"measurement": "Mean Body Weight", "setting": "[4]; Day 34", "value": 21.1, "unit": "g"},
      {"measurement": "Mean Percentage Change in Body Weight", "setting": "[4]; Day 34", "value": "−6.1", "unit": "%"},
      {"measurement": "Mean Body Weight", "setting": "[4]; Day 36", "value": 20.9, "unit": "g"},
      {"measurement": "Mean Percentage Change in Body Weight", "setting": "[4]; Day 36", "value": "−6.6", "unit": "%"},
      {"measurement": "Mean Body Weight", "setting": "[4]; Day 38", "value": 20.8, "unit": "g"},
      {"measurement": "Mean Percentage Change in Body Weight", "setting": "[4]; Day 38", "value": "−7.4", "unit": "%"},
      {"measurement": "Mean Body Weight", "setting": "[4]; Day 40", "value": 20.6, "unit": "g"},
      {"measurement": "Mean Percentage Change in Body Weight", "setting": "[4]; Day 40", "value": "−8.0", "unit": "%"},
      {"measurement": "Mean Body Weight", "setting": "[4]; Day 42", "value": 20.6, "unit": "g"},
      {"measurement": "Mean Percentage Change in Body Weight", "setting": "[4]; Day 42", "value": "−8.1", "unit": "%"},
      {"measurement": "Mean Body Weight", "setting": "[4]; Day 44", "value": 20.5, "unit": "g"},
      {"measurement": "Mean Percentage Change in Body Weight", "setting": "[4]; Day 44", "value": "−8.5", "unit": "%"},
      {"measurement": "Mean Body Weight", "setting": "[4]; Day 46", "value": "20.5* g"},
      {"measurement": "Mean Percentage Change in Body Weight", "setting": "[4]; Day 46", "value": "−8.6", "unit": "%"},
      {"measurement": "Mean Body Weight", "setting": "[4]; Day 48", "value": "20.8* g"},
      {"measurement": "Mean Percentage Change in Body Weight", "setting": "[4]; Day 48", "value": "−7.3", "unit": "%"},
      {"measurement": "Mean Body Weight", "setting": "[4]; Day 50", "value": "20.9* g"},
      {"measurement": "Mean Percentage Change in Body Weight", "setting": "[4]; Day 50", "value": "−6.9", "unit": "%"},
      {"measurement": "Mean Body Weight", "setting": "[4]; Day 52", "value": "21.1* g"},
      {"measurement": "Mean Percentage Change in Body Weight", "setting": "[4]; Day 52", "value": "−6.0", "unit": "%"},
      {"measurement": "Mean Body Weight", "setting": "[4]; Day 56", "value": 21.4, "unit": "g"},
      {"measurement": "Mean Percentage Change in Body Weight", "setting": "[4]; Day 56", "value": "−4.7", "unit": "%"},
      {"measurement": "Mean Body Weight", "setting": "[4]; Day 59", "value": 21.8, "unit": "g"},
      {"measurement": "Mean Percentage Change in Body Weight", "setting": "[4]; Day 59", "value": "−2.9", "unit": "%"},
      {"measurement": "Mean Body Weight", "setting": "[4]; Day 63", "value": 22.1, "unit": "g"},
      {"measurement": "Mean Percentage Change in Body Weight", "setting": "[4]; Day 63", "value": "−1.3", "unit": "%"},
      {"measurement": "maximum body weight loss", "setting": "[4]; G2 on day 46, other groups on day 32 / 34 as printed", "value": "−8.6", "unit": "%"},
      {"measurement": "body weight gain by the end of experiment", "setting": "[4]; mouse, in vivo", "value": "no body weight gain was observed"}
    ]}
  ]
}
